Like-named read-outs stand apart in the source and are kept apart here.

These results are taken from patent US20250134902A1, “DRUG REPURPOSING FOR DELAYED TREATMENT OF ISCHEMIC STROKE” (UNIVESRITY OF NORTH TEXAS HEALTH SCIENCE CENTER, priority 2022, published 2025).

In one data set the test system is rat blood. Nature of the data set: Clotting (streak) assay of thrombotic potential. As for the experimental part:
Clotting assays. Thrombotic potential was assessed with trunk blood from donor rats using a protocol modified from Kim et al. (Kim et al., 2010). Oxeladin was compared to whole blood with or without the anticoagulant benzamidine and several other S1R ligands at doses 10× greater than those that stimulate the release of BDNF (Dalwadi et al., 2022; Dalwadi et al., 2017). Blood was rapidly collected into chilled, pre-weighed plastic tubes containing a known quality of EDTA disodium salt (>3.7 mM) electrostatically-coated onto the tube wall. Blood was prevented from coagulating by gently swirling the chilled EDTA-coated tube. The tube was weighed and the volume of collected blood calculated in order to compute the exact concentration of EDTA in the uncoagulated blood sample allowing us to determine which concentration of calcium to add back into the blood to initiate coagulation. Uncoagulated blood samples were stored chilled. The following was be dispensed into NUNC™ MICROWELL™ MiniTrays: 8 μL/well of normal saline containing a concentration of calcium 1.2 mM higher than that of the concentration of EDTA in the blood sample, 1 μL/well of oxeladin, 3 mM benzamidine anticoagulant positive control, or untreated or vehicle negative controls, and 1 μL/well of (EDTA-treated) uncoagulated rat blood. Plates were tilted at a 45° angle at 5, 15, 30, 45 and 60 minutes to observe coagulation (i.e., no streaking) and compared to the controls. Each triplicate well was scored by a treatment-blinded observer as Yes (coagulation, no streaking) or No (no coagulation, streaking). The experiment was repeated with two separate donor rats.
Referring to FIG. 5, the effect on thrombotic activity of test drugs, benzamidine anticoagulant positive control, or untreated or vehicle negative controls on whole blood from donor rats was assessed by tilting treated blood samples at a […] to observe coagulation (i.e., no streaking) between […] (top panel). Blood coagulation was represented by a value between 1 (no streaking, coagulation) and 0 (streaking, less or no coagulation), and values were assigned for each test drug, benzamidine, and untreated and vehicle controls (bottom panel). Quantitative results from these clotting assays, including coagulation half-life, are summarized below in Table 5.

Another data set concerns neuronal MN9D cell line. In words: BDNF secretion via in situ ELISA. Conditions: MN9D cells; for Efficacy of BDNF secretion: 24 hrs, normalized to maximal response of 10 μM 4-PPBP, mean ± SEM, asterisk = significantly different from 4-PPBP. The format is cell-based. From the text:
Measuring BDNF secretion via in situ ELISA. […] The in situ ELISA improves on traditional ELISA by seeding BDNF-secreting cells directly into the wells pre-coated with an anti-BDNF primary antibody. BDNF secreted by these cells is immediately captured by the primary antibody, drastically increasing the sensitivity and reproducibility of the ELISA assay. Intact cells are removed […] the addition of the secondary and tertiary antibodies. The amount of BDNF secreted from the neuronal MN9D cells was quantified using an in situ ELISA assay developed using the BDNF EMAX® ImmunoAssay kit (Cat. No. G7611, Promega, Madison, WI). Briefly, a NUNC™ MAXISORP™ flat-bottom, polystyrene, 96-well immunoplate was coated for 48 hrs at 4° C. with an anti-BDNF monoclonal antibody diluted 1:1000 v/v in carbonate buffer containing 25 mM sodium bicarbonate and 25 mM sodium carbonate, pH 9.7. Unbound antibody was removed by washing 5 times with 150 μL of TBST buffer (20 mM Tris-HCl, pH7.6, 150 mM NaCl, and 0.05% (v/v) TWEEN® 20), before blocking non-specific sites first with blocking buffer for 1 hr and then with culture medium for 2 hrs. Cells were seeded at 35,000 cells per well and incubated overnight at 37° C. in a humidified CO2 incubator. The following day, the wells were replaced with fresh culture media containing either experimental compounds or vehicle controls, then incubated for an additional 24 hours. In addition, on the same plate, but in separate wells, BDNF standards were added ranging in concentration from 15.6-250 pg/mL. After 24 hrs incubation with experimental compounds, the media was aspirated and 100 μL of Dulbecco's phosphate saline (D-PBS without Ca^2+ and Mg^2+ supplemented with 5 mM EDTA) was added to each well and incubated for 15 min at 37° C. to promote cell lifting. Cells were then detached from the bottom of wells by triturating in the center and around the edges of the well. After removing all cell debris, the wells were rinsed five times with 150 μL of TBST. The plate was then incubated with 1:500 v/v diluted polyclonal anti-human BDNF antibody for 2 hrs at room temperature. This antibody was removed, and wells were washed five times with 150 μL of TBST, before incubating with 1:200 v/v diluted polyclonal Anti-IgY HRP conjugate for 2 hrs at room temperature. Wells were then washed five times with 150 μL of TBST and the remaining specifically bound polyclonal antibody was detected with the 50 μL colorimetric HRP substrate 3,3′,5,5′-Tetramethylbenzidine (TMB). The reaction was terminated with 50 μL of 1 M HCl and the color intensity was quantified by measuring the absorbance at 450 nm using a FLEXSTATION® 3 plate reader (Molecular Devices, Sunnyvale, CA). […] A one-way ANOVA with a Bonferroni multiple comparisons post-hoc analysis (P<0.05) was applied to determine significant differences between groups.
Further, BDNF secreted from MN9D cells can be detected 24 hours after treatment with S1R ligand, whereas BDNF secreted from the B104 cell line takes 7 days to be detected (Fujimoto, et al., 2012).
An in situ ELISA approach was utilized because of its improved sensitivity related to its rapid capture of secreted BDNF (Balkowiec & Katz, 2000; Dalwadi, et al., 2017). […] Values are averages of 2-10 experiments±SEM, and each experiment was performed in triplicate. Statistical significance at P<0.05 was determined by ANOVA followed by a Bonferroni's post-hoc test and are marked with an asterisk.
For orientation: In an ELISA, binding on a coated surface is turned into a signal by an enzyme label.

For data set [1], the target named is T1, human Sigma-1 receptor (S1R) (Homo sapiens, UniProt Q99720).
T1 construct: expressed in transfected cells
T1 sequence (Q99720 whole entry): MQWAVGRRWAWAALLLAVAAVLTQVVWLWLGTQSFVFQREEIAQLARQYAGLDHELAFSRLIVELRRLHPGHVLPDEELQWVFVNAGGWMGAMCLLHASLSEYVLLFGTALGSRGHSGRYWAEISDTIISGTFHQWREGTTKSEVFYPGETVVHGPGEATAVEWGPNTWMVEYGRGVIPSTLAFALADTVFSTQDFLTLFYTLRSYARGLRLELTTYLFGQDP
In words: Radioligand competition binding at Sigma-1 receptor ([3H]-(+)-pentazocine, MCF-7-hS1R). As for the experimental part:
Measuring receptor density with radioligand binding.
Measuring the ligand affinities at SIR and S2R receptors by radioligand binding. […] Binding conditions were the same as described previously for the S1R (Schetz, et al., 2007): binding buffer (Tris 50 mM, pH=8.1 at 37° C.), ice-cold wash buffer (Tris 10 mM, pH=8.1 at 0-2° C.), and incubation time (3 hrs at 37° C.) with shaking. Non-specific binding for the S1R and S2R was determined in the presence of 5 μM BD1063 and […] haloperidol, respectively. Following incubation, receptors were collected via rapid filtration through GF/C filters (Brandel, Gaithersburg, MD) followed by washing three times with 3 mL of ice-cold wash buffer. Dried filters were transferred to vials filled with 3.5 ml of scintillation fluid, and the radioactivity was quantified on a liquid scintillation analyzer (TRICARB® 2800TR) from Perkin Elmer (Saint Louis, MO). Mean values from duplicate or triplicate determinations are reported along with their associated standard error of the mean (SEM). Ki values were calculated from IC50 values using the Cheng-Prusoff equation. The concentration of membrane protein was determined using a PIERCE® BCA Protein Assay kit (Life Technologies, Grand Island, NY) following the manufacturer's protocol.
Referring to FIG. 1, the selectivity of potential S1R ligands over S2R was empirically evaluated. Human MCF-7 cells were used as the source of the S2R because these cells express the endogenous S2R (Vilner, John, et al., 1995; Wu & Bowen, 2008) but lack detectable levels of the S1R, allowing unambiguous detection of S2R activity in untransfected cells (Schetz, et al., 2007). MCF-7 cells stably expressing the cloned human S1R were used as the source of S1R.
In general terms: Loss of bound radioactivity is the signal in a displacement assay; it reports binding, not function.

Where [2] appears, read: displacement of 0.5 nM [3H]-(+)-pentazocine, MCF-7 cells expressing human S1R, average of 2-3 experiments ± SEM, read-out: S1R affinity (Ki).

For the compound `OC(CCCN1CCC(O)(c2ccc(Cl)cc2)CC1)c1ccc(F)cc1` (stereo not drawn) [Haloperidol Metabolite II], the “Coagulation Half-Life (λ1/2 ± SD)” value in the data set on rat blood (100 μM, rat blood) was found to be 14 ± 11 min.

Take `c1ccc(CCCCN2CCC(c3ccccc3)CC2)cc1` [4-PPBP]: in the data set on rat blood (100 μM, rat blood), the “Coagulation Half-Life (λ1/2 ± SD)” value worked out at 11 ± 6 min. Besides, the “Efficacy of BDNF secretion” value in the data set with neuronal MN9D cell line (10 μM) was 1. Further, the “BDNF secreted, maximal stimulation” value in the data set with neuronal MN9D cell line (10 μM, averaged ± SEM, n=3-10, baseline 75.4±6.9) worked out at 128.6 ± 12.8 pg/mL.

For `O=C(OCCN1CCOCC1)C1(c2ccccc2)CCCCC1` [PRE-084], the “stimulation of BDNF secretion” value with neuronal MN9D cell line (10 μM) is “failed to stimulate BDNF secretion”.

In the case of `CN1CCN(CCc2ccc(Cl)c(Cl)c2)CC1` [BD1063], the “reversal of S1R agonist-induced BDNF secretion” value with neuronal MN9D cell line (15 nM antagonist) is “reversed”.

Consider `CC(CN1c2ccccc2Sc2ccccc21)N(C)C` (stereo not drawn) [Promethazine], for which, in the data set with rat blood, the “effect on thrombosis in blood” value is reported as “do not alter thrombosis”. The “Efficacy of BDNF secretion” value in the data set with neuronal MN9D cell line (10 μM) amounted to 1.09 ± 0.34. For the same compound, in data set [1], the “selective for S1R over S2R” value was determined as 5 fold. Further, the Ki in data set [1] (receptor not given, S1R implied, read-out: affinity) was determined as 0.157 µM.

Turning to `Cc1c(C2CCN(CCc3ccccc3)CC2)noc1-c1ccc(Cl)cc1` [L-741, 742], the “Coagulation Half-Life (λ1/2 ± SD)” value in the data set on rat blood (rat) turned out to be 11 ± 6 min.

Take `CCN(CC)CCOCCOC(=O)C1(c2ccccc2)CCCC1` [Carbetapentane]: the “Coagulation Half-Life (λ1/2 ± SD)” value in the data set with rat blood (rat) turned out to be 23 ± 18 min. Further, the “Efficacy of BDNF secretion” value with neuronal MN9D cell line (10 μM) is 0.73 ± 0.05. Besides, the Ki in data set [1] (setting [2]) was found to be 0.0198 ± 0.0023 µM.

Take `Clc1ccc(N2CCN(Cc3c[nH]c4ncccc34)CC2)cc1` [L-745, 870]: the “Coagulation Half-Life (λ1/2 ± SD)” value in the data set with rat blood (rat) came out at 11 ± 6 min.

For the compound `CCC(C(=O)OCCOCCN(CC)CC)c1ccccc1` (stereo not drawn) [Butamirate], the “stimulation of BDNF secretion” value in the data set with neuronal MN9D cell line (10 μM) is “With the exception of butamirate, all compounds were able to stimulate BDNF release”. Also, the “selective for S1R over S2R” value in data set [1] was 10 fold. Further, in data set [1] (setting [2]), the Ki was 0.0172 ± 0.0017 µM. For the same compound, the “S2R/S1R ratio (Ki S2R/Ki S1R)” value in data set [1] (selectivity for S1R over S2R) is 10.

For `COc1ccc(CCN2CCN(CCCc3ccccc3)CC2)cc1OC` [SA4503], in the data set on rat blood (rat), the “Coagulation Half-Life (λ1/2 ± SD)” value stood at 11 ± 6 min.

`N=C(N)c1ccccc1` [Benzamidine]: the “Coagulation Half-Life (λ1/2 ± SD)” value with rat blood (3000 μM, rat blood, positive control) was >1,440 minutes; in the data set on rat blood (3000 μM, rat blood, positive control, listed as positive control) it was > 1,440 minutes.

As to `CCC(C/C=C/c1ccccc1)(c1ccccc1)N(C)CC1CC1` (single isomer, unassigned; (+)) [(+)-igmesine], the “Coagulation Half-Life (λ1/2 ± SD)” value with rat blood (rat) stood at 19 ± 16 min. Besides, in the data set with neuronal MN9D cell line (10 μM), the “Efficacy of BDNF secretion” value came out at 0.42 ± 0.03.
